Data as given in US20230111310A1, “CARBOXYLIC ACID DERIVATIVE-SUBSTITUTED IMINO ARYL COMPOUND, PREPARATION METHOD THEREFOR, HERBICIDAL COMPOSITION AND USE THEREOF” (Qingdao Kingagroot Chemical Compound Co., Ltd., priority 2020, published 2023).

Tests used:
Assay in all cases: Weeding effect in post-emergence stage
Assay type in all cases: in vivo
Details in all cases: fresh weight control rate level
Echinochloa crusgalli = system: Echinochloa crusgalli
Procedure, shortened: (§1)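 Read-out is growth control rate, counted 3 weeks post-spray and averaged over three repeats. Greenhouse plants at the 2-3 leaf stage received spray-tower application at 500, 250, 125, 60, 30, 15 or 7.5 g/ha, with methyl oleate EC (1.5 liter/ha) and Tween 80 added.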

Abutilon theophrasti = system: Abutilon theophrasti
Procedure, shortened: as §1

Setaria viridis = system: Setaria viridis
Procedure, shortened: as §1

Eleusine indica = system: Eleusine indica
Procedure, shortened: as §1

Alopecurus japonicus = system: Alopecurus japonicus
Procedure, shortened: as §1

Digitaria sanguinalis = system: Digitaria sanguinalis
Procedure, shortened: as §1

Compound | Weeding effect in post-emergence stage, Echinochloa crusgalli (level) (Echinochloa crusgalli; Dose 60 g/ha) | Weeding effect in post-emergence stage, Abutilon theophrasti (level) (Abutilon theophrasti; Dose 60 g/ha) | Weeding effect in post-emergence stage, Setaria viridis (level) (Setaria viridis; Dose 60 g/ha) | Weeding effect in post-emergence stage, Eleusine indica (level) (Eleusine indica; Dose 60 g/ha) | Weeding effect in post-emergence stage, Alopecurus japonicus (level) (Alopecurus japonicus; Dose 60 g/ha) | Weeding effect in post-emergence stage, Digitaria sanguinalis (level) (Digitaria sanguinalis; Dose 60 g/ha) | Weeding effect in post-emergence stage, Echinochloa crusgalli (level) (Echinochloa crusgalli; Dose 15 g/ha) | Weeding effect in post-emergence stage, Abutilon theophrasti (level) (Abutilon theophrasti; Dose 15 g/ha) | Weeding effect in post-emergence stage, Setaria viridis (level) (Setaria viridis; Dose 15 g/ha) | Weeding effect in post-emergence stage, Eleusine indica (level) (Eleusine indica; Dose 15 g/ha) | Weeding effect in post-emergence stage, Alopecurus japonicus (level) (Alopecurus japonicus; Dose 15 g/ha) | Weeding effect in post-emergence stage, Digitaria sanguinalis (level) (Digitaria sanguinalis; Dose 15 g/ha) | also measured
COC(=O)[C@@H](C)O/N=C/c1cc(-n2c(=S)cc(C(F)(F)F)n(C)c2=S)c(F)cc1C(F)(F)F [392(R)] | 5 (Level 5: growth control rate is above 85%) | 5 (Level 5: growth control rate is above 85%) | 5 (Level 5: growth control rate is above 85%) | 5 (Level 5: growth control rate is above 85%) | 5 (Level 5: growth control rate is above 85%) | 5 (Level 5: growth control rate is above 85%) |  |  |  |  |  |  | 
COC(=O)[C@@H](C)O/N=C/c1cc(-n2c(=S)cc(C(F)(F)F)n(C)c2=S)c(F)cc1C#N [393(R)] | 5 (Level 5: growth control rate is above 85%) | 5 (Level 5: growth control rate is above 85%) | 5 (Level 5: growth control rate is above 85%) | 5 (Level 5: growth control rate is above 85%) | 5 (Level 5: growth control rate is above 85%) | 5 (Level 5: growth control rate is above 85%) |  |  |  |  |  |  | 
COC(=O)[C@@H](C)O/N=C/c1cc(-n2c(=O)cc(C(F)(F)F)n(C)c2=S)c(F)cc1Br [394(R)] | 5 (Level 5: growth control rate is above 85%) | 5 (Level 5: growth control rate is above 85%) | 5 (Level 5: growth control rate is above 85%) | 5 (Level 5: growth control rate is above 85%) | 5 (Level 5: growth control rate is above 85%) | 5 (Level 5: growth control rate is above 85%) |  |  |  |  |  |  | 
COC(=O)[C@@H](C)O/N=C/c1cc(-n2c(=O)cc(C(F)(F)F)n(C)c2=S)c(F)cc1C(F)(F)F [395(R)] | 5 (Level 5: growth control rate is above 85%) | 5 (Level 5: growth control rate is above 85%) | 5 (Level 5: growth control rate is above 85%) | 5 (Level 5: growth control rate is above 85%) | 5 (Level 5: growth control rate is above 85%) | 5 (Level 5: growth control rate is above 85%) |  |  |  |  |  |  | 
COC(=O)[C@@H](C)O/N=C/c1cc(-n2c(=O)cc(C(F)(F)F)n(C)c2=S)c(F)cc1C#N [396(R)] | 5 (Level 5: growth control rate is above 85%) | 5 (Level 5: growth control rate is above 85%) | 5 (Level 5: growth control rate is above 85%) | 5 (Level 5: growth control rate is above 85%) | 5 (Level 5: growth control rate is above 85%) | 5 (Level 5: growth control rate is above 85%) |  |  |  |  |  |  | 
CCCSC(=O)[C@@H](C)O/N=C/c1cc(-n2c(=O)cc(C(F)(F)F)n(C)c2=O)c(F)cc1Cl [399(R)] |  |  |  |  |  |  | 5 (Level 5: growth control rate is above 85%) | 5 (Level 5: growth control rate is above 85%) | 5 (Level 5: growth control rate is above 85%) | 5 (Level 5: growth control rate is above 85%) | 5 (Level 5: growth control rate is above 85%) | 5 (Level 5: growth control rate is above 85%) | 
CC(C)SC(=O)[C@@H](C)O/N=C/c1cc(-n2c(=O)cc(C(F)(F)F)n(C)c2=O)c(F)cc1Cl [400(R)] |  |  |  |  |  |  | 5 (Level 5: growth control rate is above 85%) | 5 (Level 5: growth control rate is above 85%) | 5 (Level 5: growth control rate is above 85%) | 5 (Level 5: growth control rate is above 85%) | 5 (Level 5: growth control rate is above 85%) | 5 (Level 5: growth control rate is above 85%) | 
COC(=O)CSC(=O)[C@@H](C)O/N=C/c1cc(-n2c(=O)cc(C(F)(F)F)n(C)c2=O)c(F)cc1Cl [406(R)] |  |  |  |  |  |  | 5 (Level 5: growth control rate is above 85%) | 5 (Level 5: growth control rate is above 85%) | 5 (Level 5: growth control rate is above 85%) | 5 (Level 5: growth control rate is above 85%) | 5 (Level 5: growth control rate is above 85%) | 5 (Level 5: growth control rate is above 85%) | 
C[C@@H](O/N=C/c1cc(-n2c(=O)cc(C(F)(F)F)n(C)c2=O)c(F)cc1Cl)C(=O)SCc1ccccc1 [409(R)] |  |  |  |  |  |  |  |  |  |  |  |  | Weeding effect in post-emergence stage, Echinochloa crusgalli (level) (Echinochloa crusgalli; Dose 30 g/ha): 5 (Level 5: growth control rate is above 85%); Weeding effect in post-emergence stage, Abutilon theophrasti (level) (Abutilon theophrasti; Dose 30 g/ha): 5 (Level 5: growth control rate is above 85%); Weeding effect in post-emergence stage, Setaria viridis (level) (Setaria viridis; Dose 30 g/ha): 5 (Level 5: growth control rate is above 85%); Weeding effect in post-emergence stage, Eleusine indica (level) (Eleusine indica; Dose 30 g/ha): 5 (Level 5: growth control rate is above 85%); Weeding effect in post-emergence stage, Alopecurus japonicus (level) (Alopecurus japonicus; Dose 30 g/ha): 5 (Level 5: growth control rate is above 85%); Weeding effect in post-emergence stage, Digitaria sanguinalis (level) (Digitaria sanguinalis; Dose 30 g/ha): 5 (Level 5: growth control rate is above 85%)
COC(=O)CCNC(=O)[C@@H](C)O/N=C/c1cc(-n2c(=O)cc(C(F)(F)F)n(C)c2=O)c(F)cc1Cl [416(R)] |  |  |  |  |  |  | 5 (Level 5: growth control rate is above 85%) | 5 (Level 5: growth control rate is above 85%) | 5 (Level 5: growth control rate is above 85%) | 5 (Level 5: growth control rate is above 85%) | 5 (Level 5: growth control rate is above 85%) | 5 (Level 5: growth control rate is above 85%) | 
CON(C)C(=O)[C@@H](C)O/N=C/c1cc(-n2c(=O)cc(C(F)(F)F)n(C)c2=O)c(F)cc1Cl [419(R)] |  |  |  |  |  |  | 5 (Level 5: growth control rate is above 85%) | 5 (Level 5: growth control rate is above 85%) | 5 (Level 5: growth control rate is above 85%) | 5 (Level 5: growth control rate is above 85%) | 5 (Level 5: growth control rate is above 85%) | 5 (Level 5: growth control rate is above 85%) | 
